# Experimental data reported in patent publication US6403623B1, “Heterocyclic antituberculosis agents” (Unuversity of Notre Dame du Lac, priority 1999, dated 2002).
# System: M. tuberculosis H37R
# Test: microbe, parasite or virus in culture
# Format: cell-based
# Details: Mycobacterium tuberculosis, in vitro, concentration of 12.5 μg/mL, read-out: inhibition of the growth of M. tuberculosis H37R
smiles,measurement,value
"O=C(OCc1ccccc1)[C@@H]1COC(c2ccccc2OCc2ccccc2)=N1 [Example 1, (S)-Benzyl 2-[2-(Benzyloxy)phenyl]-2-oxazoline-4-carboxylate]",inhibition at 12.5 µg/mL,98%
